{"source": "paper PMC7138307", "about": "(PLoS ONE, 2020)", "key": {"[1]": {"test": "Free drug in the brain after hypothermia experiment", "format": "in vivo", "conditions": "C57Bl/6, mouse, intraperitoneal, one hour after dosing", "procedure": "Following hypothermia induction, 200–300 μL of blood was collected via cardiac punch and transferred to K2EDTA-treated BD Microtainers (Becton Dickinson and Co., Franklin Lakes, NJ). Mice were sacrificed via decapitation and brains were quickly removed and bisected sagitally. The right cortices, were isolated, placed into 2 mL microtubes along with a single 5 mm stainless steel bead and the left cortices were placed into 2 mL Lysing Matrix A tubes (MP Biomedicals, Santa Ana, CA). Both tubes were immediately snap frozen in liquid nitrogen. The whole blood-containing microtainers were centrifuged (2000 x g, 5 minutes) and plasma was transferred to 96-well plates for pharmacokinetic determination. […] The protein content of each sample was quantified using a Direct Detect Infrared Spectrometer (EMD Millipore Corp., Burlington, MA).\nIn vitro plasma and brain protein binding values were generated via the Rapid Equilibrium Dialysis method. […] At the conclusion of incubation, samples were taken from both matrix and buffered compartments, matrix-matched using blank buffer and matrix, extracted with acetonitrile, diluted with water, and analyzed utilizing an Agilent RapidFire 365 high-throughput LC coupled with MS/MS detection via an AB Sciex 5500. Free fractions (fu) were then calculated by comparing peak-area ratios of matrix and buffered compartments. […]"}, "[2]": {"biological_target": "T1, MAP4K5 (Mus musculus, UniProt Q8BPM2)", "T1 construct": "from tissue; host or cells: mouse cortical brain lysate", "T1 sequence (Q8BPM2 whole entry)": "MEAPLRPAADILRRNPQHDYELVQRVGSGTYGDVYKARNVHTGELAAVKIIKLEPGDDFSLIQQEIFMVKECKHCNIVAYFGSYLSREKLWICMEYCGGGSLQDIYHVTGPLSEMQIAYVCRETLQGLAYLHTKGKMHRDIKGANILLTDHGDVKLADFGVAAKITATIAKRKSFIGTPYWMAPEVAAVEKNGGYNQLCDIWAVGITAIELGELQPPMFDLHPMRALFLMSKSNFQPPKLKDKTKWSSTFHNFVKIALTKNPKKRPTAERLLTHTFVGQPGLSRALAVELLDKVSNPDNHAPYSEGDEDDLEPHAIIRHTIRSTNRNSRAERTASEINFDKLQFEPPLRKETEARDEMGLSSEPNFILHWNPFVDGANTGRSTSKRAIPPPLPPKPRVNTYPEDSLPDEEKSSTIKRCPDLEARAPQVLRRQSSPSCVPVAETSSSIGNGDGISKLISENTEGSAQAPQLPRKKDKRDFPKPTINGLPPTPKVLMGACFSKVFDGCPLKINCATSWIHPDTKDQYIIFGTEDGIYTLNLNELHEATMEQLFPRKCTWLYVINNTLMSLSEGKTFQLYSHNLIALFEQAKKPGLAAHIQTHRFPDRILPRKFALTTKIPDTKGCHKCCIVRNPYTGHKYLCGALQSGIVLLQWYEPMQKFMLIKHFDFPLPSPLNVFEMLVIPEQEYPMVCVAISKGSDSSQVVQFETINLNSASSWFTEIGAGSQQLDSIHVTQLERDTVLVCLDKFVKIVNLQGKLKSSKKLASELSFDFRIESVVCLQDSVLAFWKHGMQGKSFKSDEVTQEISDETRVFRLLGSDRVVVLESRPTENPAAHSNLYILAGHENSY", "test": "Ex vivo KiNativ ATP/ADP probe competition in mouse cortical brain lysates", "format": "binding", "conditions": "NVHTGELAAVKIIK, Lys1"}, "[3]": {"biological_target": "T2, TAO1 (Mus musculus, UniProt Q5F2E8)", "T2 construct": "from tissue; host or cells: mouse cortical brain lysate", "T2 sequence (Q5F2E8 1-1001)": "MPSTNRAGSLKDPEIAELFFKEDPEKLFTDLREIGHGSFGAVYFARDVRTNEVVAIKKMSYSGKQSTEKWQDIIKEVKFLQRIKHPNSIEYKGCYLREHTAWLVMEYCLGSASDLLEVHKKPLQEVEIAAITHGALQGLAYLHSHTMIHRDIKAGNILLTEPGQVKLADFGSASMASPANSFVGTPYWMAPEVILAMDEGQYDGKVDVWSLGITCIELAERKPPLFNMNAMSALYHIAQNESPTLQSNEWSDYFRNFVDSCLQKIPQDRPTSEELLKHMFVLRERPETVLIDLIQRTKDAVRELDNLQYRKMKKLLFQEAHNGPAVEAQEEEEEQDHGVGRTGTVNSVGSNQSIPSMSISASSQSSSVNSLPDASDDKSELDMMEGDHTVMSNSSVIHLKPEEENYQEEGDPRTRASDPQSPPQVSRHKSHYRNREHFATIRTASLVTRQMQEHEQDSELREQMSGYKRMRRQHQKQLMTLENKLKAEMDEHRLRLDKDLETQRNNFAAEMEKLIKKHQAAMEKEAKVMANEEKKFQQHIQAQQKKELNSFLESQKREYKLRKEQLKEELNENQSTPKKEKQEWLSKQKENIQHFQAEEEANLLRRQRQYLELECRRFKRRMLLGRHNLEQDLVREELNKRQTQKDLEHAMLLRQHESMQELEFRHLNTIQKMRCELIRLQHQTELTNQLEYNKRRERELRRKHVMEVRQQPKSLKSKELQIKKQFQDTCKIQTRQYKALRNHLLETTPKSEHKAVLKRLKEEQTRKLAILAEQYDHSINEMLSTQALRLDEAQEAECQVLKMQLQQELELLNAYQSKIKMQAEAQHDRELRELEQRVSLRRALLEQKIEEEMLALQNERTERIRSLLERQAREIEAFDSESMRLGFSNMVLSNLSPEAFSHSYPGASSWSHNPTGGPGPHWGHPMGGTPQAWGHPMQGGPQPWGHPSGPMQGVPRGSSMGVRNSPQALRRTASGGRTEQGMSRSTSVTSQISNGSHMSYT", "test": "Ex vivo KiNativ ATP/ADP probe competition in mouse cortical brain lysates", "format": "binding", "conditions": "TNEVVAIKK; Lys1; ADP probe"}}, "note": "Where two headings read alike, the source gives them in different places."}
{"smiles": "CCC(C)(O)C#Cc1cc2c(ccn2-c2ccnc(N)n2)cn1", "note": "(centres unmarked) [BIIB-TTBK1i]", "values": [{"measurement": "concentration at 1 h", "setting": "[1]; 25mg/kg I.P., read-out: concentration of free drug in the brain", "result": 207, "unit": "nM"}, {"measurement": "concentration at 1 h", "setting": "[1]; 50mg/kg I.P., read-out: average free drug in the brain", "result": 602, "unit": "nM"}, {"measurement": "Percent Inhibition at 1μM", "setting": "[2]; ADP probe", "result": 69.7, "unit": "%"}, {"measurement": "Percent Inhibition at 1μM", "setting": "[2]; ATP probe", "result": 58.7, "unit": "%"}, {"measurement": "Percent Inhibition at 1μM", "setting": "[3]", "result": 75.9, "unit": "%"}]}
